Patent US20210395210A1, “INHIBITION OF BACTERIAL CHAPERONIN SYSTEMS” (THE TRUSTEES OF INDIANA UNIVERSITY, priority 2018, published 2021)

How the values were obtained:
E. coli GroEL/ES = target: T1, E. coli GroEL/ES (Escherichia coli, UniProt P0A6F5); experiment: GroEL/ES-mediated dRho refolding assay; type: biochemical; details: for log(IC50) GroEL/ES-dRho Refolding: log of IC50 (μM scale), with standard deviation
T1 construct: made in house; host or cells: GroEL in E. coli DH5α; GroES in E. coli BL21 (DE3)
T1 sequence (P0A6F5 2-548): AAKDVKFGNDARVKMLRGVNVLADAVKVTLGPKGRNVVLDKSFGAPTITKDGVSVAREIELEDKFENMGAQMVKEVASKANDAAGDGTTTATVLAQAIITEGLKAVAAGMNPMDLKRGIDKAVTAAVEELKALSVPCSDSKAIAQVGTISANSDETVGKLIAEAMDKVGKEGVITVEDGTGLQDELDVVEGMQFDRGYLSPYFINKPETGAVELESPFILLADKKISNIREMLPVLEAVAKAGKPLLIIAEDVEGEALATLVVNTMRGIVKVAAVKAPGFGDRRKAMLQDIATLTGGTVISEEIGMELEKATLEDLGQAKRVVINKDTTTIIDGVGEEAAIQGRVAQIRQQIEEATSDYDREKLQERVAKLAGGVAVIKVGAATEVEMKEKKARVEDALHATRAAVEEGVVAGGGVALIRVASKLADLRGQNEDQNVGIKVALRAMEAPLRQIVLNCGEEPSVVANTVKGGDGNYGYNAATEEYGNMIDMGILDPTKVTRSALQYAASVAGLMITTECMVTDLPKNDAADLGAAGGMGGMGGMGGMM
Procedure: Reagent preparation: For this assay, five primary reagent stocks were prepared: 1) GroEUES-dRho binary complex stock; 2) ATP initiation stock; 3) thiocyanate enzymatic assay stock; 4) formaldehyde quench stock; 5) ferric nitrate reporter stock. Denatured rhodanese (dRho) was prepared by 3-fold dilution of rhodanese (Roche product #R1756, diluted to 10 mg/mL with H2O) with denaturant buffer (12 M Urea, 50 mM Tris-HCl, pH 7.4, and 10 mM DTT). Rhodanese was completely denatured by incubating at room temperature for 45 min. The binary complex solution was prepared by slowly adding the dRho stock to a stirring stock of concentrated GroEL in modified folding buffer (50 mM Tris-HCl, pH 7.4, 50 mM KCl, 10 mM MgCl2, 5 mM Na2S2O3, and 1 mM DTT). The solution was centrifuged at 16,000×g for 5 minutes, and the supernatant was collected and added to a solution of GroES in modified folding buffer to give final protein concentrations of 100 nM GroEL, 120 nM GroES, and 80 nM dRho. The binary complex stock was prepared immediately prior to use. For the ATP initiation stock, ATP solid was diluted into modified folding buffer to a final concentration of 2.0 mM. The thiocyanate enzymatic assay stock was prepared to contain 70 mM KH2PO4, 80 mM KCN, and 80 mM Na2S2O3 in water. The formaldehyde quench solution contained 30% formaldehyde in water. The ferric nitrate reporter stock contained 8.5% w/v Fe(NO3)3 and 11.3% v/v HNO3 in water.
Assay Protocol: First, 10 μL aliquots of the GroEL/ES-dRho complex stock were dispensed into clear, 384-well polystyrene plates. […] The chaperonin-mediated refolding cycle was initiated by addition of 10 μL of ATP stock (reagent concentrations during refolding cycle: 50 nM GroEL, 60 nM GroES, 40 nM dRho, 1 mM ATP, and compounds of 250 μM to 114 nM, 3-fold dilution series). After incubating for 45 minutes at 37° C. for the refolding cycle, 30 μL of the thiocyanate enzymatic assay stock was added and incubated for 60 min at R.T. for the refolded rhodenase enzymatic reporter reaction. The reporter reaction was quenched by adding 10 μL of the formaldehyde quench stock, and then 40 μL of the ferric nitrate reporter stock was added to quantify the amount of thiocyanate produced during the enzymatic reporter reaction, which is proportional to the amount of dRho refolded by GroEL/ES. After incubating at R.T. for 15 min, the absorbance by Fe(SCN)3 was measured at 460 nm using a Molecular Devices SpectraMax Plus384 microplate reader. A second set of baseline control plates were prepared analogously, but without GroEL/ES-dRho protein binary solution, to correct for possible interference from compound absorbance or turbidity. […] Results presented represent the averages of IC50 values obtained from at least quadriplicate (duplicate of duplicate) replicates.
After generating the compound library, we next employed a series of well-established biochemical assays to evaluate compound inhibitory effects against the GroEUES chaperonin system (See FIG. 6 and FIG. 7). We used E. coli GroEUES as the surrogate chaperonin system for refolding of the reporter enzymes malate dehydrogenase (MDH) and rhodanese (Rho). Briefly, binary complexes are formed between GroEL and denatured MDH or Rho, which are then refolded to their native states upon addition of ATP and the GroES co-chaperonin. Enzymatic activities of refolded native MDH or Rho act as coupled reporters of GroEUES refolding functions since in the presence of chaperonin inhibitors, no functional reporter enzymes are generated.

native Rho (rhodanese) = target: T2, native Rho (rhodanese) (Bos taurus, UniProt P00586); experiment: Counter-screen for inhibition of native rhodanese enzymatic activity; type: biochemical; details: for IC50: read-out: Biochemical Assay IC50 Native Rho Reporter; for log(IC50) Native Rho Reporter: log of IC50 (μM scale), with standard deviation
T2 construct: purchased Roche (so in the source) R1756
T2 sequence (P00586 1-297): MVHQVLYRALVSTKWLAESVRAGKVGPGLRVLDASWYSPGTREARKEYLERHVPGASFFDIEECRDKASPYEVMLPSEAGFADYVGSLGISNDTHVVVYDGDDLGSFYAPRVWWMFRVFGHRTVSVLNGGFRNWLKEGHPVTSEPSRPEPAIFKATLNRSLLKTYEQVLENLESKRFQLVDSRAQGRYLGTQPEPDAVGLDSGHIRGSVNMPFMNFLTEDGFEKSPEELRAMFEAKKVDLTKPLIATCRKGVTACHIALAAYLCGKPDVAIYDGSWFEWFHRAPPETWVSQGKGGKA
Procedure: Reagent Preparations & Assay Protocol: Reagents were identical to those used in the GroEUES-dRho refolding assay described above; however, the assay protocol differed in the sequence of compound addition to the wells. Compounds were pin-transferred after the 60 minute incubation for the refolding cycle, but prior to the addition of the thiocyanate enzymatic assay stock. Thus, the refolding reactions were allowed to proceed for 60 min at 37° C. in the absence of test compounds, but the enzymatic activity of the refolded rhodanese reporter enzyme was monitored in the presence of test compounds (inhibitor concentration range during the enzymatic reporter reaction is 100 µM to 46 nM-3-fold dilutions). IC50 values for the rhodenase reporter enzyme were determined as described above. Results presented represent the averages of IC50 values obtained from at least quadriplicate (duplicate of duplicate) replicates.

in vitro = details: human
Procedure: HEK 293 cells were maintained in MEM medium (Corning Cellgro, 10-009 CV) supplemented with 10% FBS (Sigma, F2242). […] Cells at 80% confluence were harvested and diluted in growth medium, then 45 μL of the THLE-3 cells (1,500 cells/well) or HEK 293 cells (1,500 cells/well) were dispensed per well, and plates were sealed with “Breathe Easy” oxygen permeable membranes (Diversified Biotech) and incubated at 37° C., 5% CO2, for 24 h.

| Structure (SMILES) | IC50 (E. coli GroEL/ES) [µM] | IC50 (native Rho (rhodanese)) [µM] | CC50 at 48 h (in vitro) [µM] | log(IC50) GroEL/ES-dRho Refolding (E. coli GroEL/ES) | log(IC50) Native Rho Reporter (native Rho (rhodanese)) |
| --- | --- | --- | --- | --- | --- |
| COc1ccc(Br)cc1C(=O)Nc1ccc(Sc2nc3ccccc3s2)c(Cl)c1 [Compound 31, N-(4-(Benzo[d]thiazol-2-ylthio)-3-chlorophenyl)-5-bromo-2-methoxybenzamide] | > 100 | > 100 | > 100 |  |  |
| COc1ccccc1C(=O)Nc1ccc(Sc2nc3ccccc3s2)c(Cl)c1 [Compound 32, N-(4-(Benzo[d]thiazol-2-ylthio)-3-chlorophenyl)-2-methoxybenzamide] | > 100 | > 100 | > 100 |  |  |
| COc1c(Br)cc(Br)cc1C(=O)Nc1ccc(Sc2nc3ccccc3s2)cc1 [Compound 33, N-(4-(Benzo[d]thiazol-2-ylthio)phenyl)-3,5-dibromo-2-methoxybenzamide] | > 100 | > 100 | > 100 |  |  |
| COc1ccc(Br)cc1C(=O)Nc1ccc(Sc2nc3ccccc3s2)cc1 [Compound 35, N-(4-(Benzo[d]thiazol-2-ylthio)phenyl)-5-bromo-2-methoxybenzamide] | > 100 | > 100 | > 100 |  |  |
| COc1ccccc1C(=O)Nc1ccc(Sc2nc3ccccc3s2)cc1 [Compound 36, N-(4-(Benzo[d]thiazol-2-ylthio)phenyl)-2-methoxybenzamide] | > 100 | > 100 | > 100 |  |  |
| COc1c(Br)cc(Br)cc1C(=O)Nc1cccc(Cl)c1 [Compound 37, 3,5-Dibromo-N-(3-chlorophenyl)-2-methoxybenzamide] | > 100 | > 100 | > 100 | >2 | >2 |
| COc1c(Br)cccc1C(=O)Nc1cccc(Cl)c1 [Compound 38] | > 100 | > 100 | > 100 | >2 | >2 |
| COc1ccc(Br)cc1C(=O)Nc1cccc(Cl)c1 [Compound 39, 5-Bromo-N-(3-chlorophenyl)-2-methoxybenzamide] | > 100 | > 100 | 93.3 | >2 | >2 |
| COc1ccccc1C(=O)Nc1cccc(Cl)c1 [Compound 40, N-(3-Chlorophenyl)-2-methoxybenzamide] | > 100 | > 100 | > 100 | >2 | >2 |
| COc1c(Br)cc(Br)cc1C(=O)Nc1ccccc1 [Compound 41, 3,5-Dibromo-2-methoxy-N-phenylbenzamide] | > 100 | > 100 | > 100 | >2 | >2 |
| COc1c(Br)cccc1C(=O)Nc1ccccc1 [Compound 42, 3-Bromo-2-methoxy-N-phenylbenzamide] | > 100 | > 100 | > 100 | >2 | >2 |
| COc1ccc(Br)cc1C(=O)Nc1ccccc1 [Compound 43, 5-Bromo-2-methoxy-N-phenylbenzamide] | > 100 | > 100 | > 100 | >2 | >2 |
